Measurements from publication PMC11571207, “Stereorandomized Oncocins with Preserved Ribosome Binding and Antibacterial Activity” (Journal of Medicinal Chemistry, 2024).
Values after ≈ are worked out from the molar mass of the structure shown. Values joined by “and” are separate entries in the source; they are usually repeats but may differ in a detail not shown here. Equal entries are not always repeated. “Also recorded” adds a separate entry of the source. Where two headings read alike, the source gives them in different places. Non-standard residues stand in square brackets, D forms with d. Residues, ends and D or L forms follow the SMILES beside them. No end group written: not given here.

Columns and labels:
[1] = test system: P. aeruginosa PA14 4.13 (phoQ); test: microbe, parasite or virus in culture; conditions: Pseudomonas aeruginosa
[2] = 25% (v/v) human serum in 0.1 M TRIS buffer pH 7.4, peptide 200 μM, 37 °C, 0/24/48/72 h, LC-MS UV trace vs 4-hydroxybenzoic acid internal standard, n = 3
Description: Human serum was diluted in 0.1 M filtered TRIS buffer pH 7.4 (50%, 1:1, v/v). Selected peptides were diluted in 0.1 M filtered TRIS buffer pH 7.4 to a concentration of 400 μM and 0.1 mg/mL 4- hydroxybenzoic acid was added as internal standard. Aliquots of peptide solution (300 μL) were added to aliquots of serum (300 μL) in sterile 1.5 mL Eppendorf tubes, to reach a peptide concentration of 200 μM and 25% (v/v) human serum during the assay. Samples, in triplicate, were incubated at 37 °C under gentle stirri ng (200 rpm). At different time points (0, 24, 48 and 72 hours), 100 μL of each sample was collected and quenched by precipitating serum proteins through the addition of (0.1 M) ZnSO4·7 H2O / ACN (1:1) (0.1 M, 100 μL) and cooling in ice bath for 10 minutes. Protein precipitates were pelleted under centrifugation (5 min at 14’000 rpm) and the supernatants were analysed by LC-MS. Peaks corresponding to the internal standard and the undegraded peptides were integrated from the area under the curves (AUC) of UV traces, with the ratio peptide/standard at t = 0 h as 100%.
Figure S7. Serum stability assay of the respective compound (200 μM), incubated with human serum (25% in TRIS buffer, 0.1 M, pH 7.4) at 37 °C. Aliquots were taken at different time (0 / 24 / 48 and 72 h). Undegraded peptide values determined by RP -HPLC analysis usi ng hydroxybenzoic acid as internal standard. Measured in triplicates and the data represent mean ± SD, n […]
(1 picture or pasted object on this page, not shown here)

[3] = target: T1, DnaK (Escherichia coli, UniProt P0A6Y8); test: Microscale thermophoresis with His-Tag-labeled DnaK; type: binding; conditions: MST buffer
T1 construct: made in house; host or cells: E. coli BL21(DE3), pET28a T7 vector (synthetic gene, GenScript)
Description: A plasmid containing the DnaK insert was designed in SnapGene and ordered commercially as a synthetic gene (Figure S11). Chemically competent BL21(DE3) cells were transformed with the plasmid vector (GenScript), and positive transformants were selected on LB + Kanamycin agar. For protein expression, 6 mL of overnight cultures inoculated with a single colony were used to initiate shake-flask expression at 300 mL scale in LB + kanamycin ([…]) + 1 mM IPTG. The flasks were cultured overnight at 220 rpm, 37 °C, and the bacteria were harvested by centrifugation the next day. Pelleted cells were stored at −20 °C. […] The collected fractions were analyzed by SDS-PAGE. […]
DnaK labeling was performed using the Nanotemper Monolith His-Tag Labeling Kit RED-tris-NTA Second Generation. […] The fluorescence variation between the samples was measured in 4 replicates with the Monolith NT.115 device in Monolith NT.115 Premium Capillaries and analyzed with the MOcontrol software (Figures S13–S15).
To each sample, 10 μL of 40 nM His-Tag-labeled DnaK was added, resulting in a final volume of 20 μL per sample. The fluorescence variations between the samples were measured by using the Monolith NT.115 device with Monolith NT.115 Premium Capillaries. The data were analyzed with MOcontrol software to determine the binding affinity between L-onc and His-Tag-labeled DnaK (Figure S16).

T1 sequence (P0A6Y8 whole entry, species assumed): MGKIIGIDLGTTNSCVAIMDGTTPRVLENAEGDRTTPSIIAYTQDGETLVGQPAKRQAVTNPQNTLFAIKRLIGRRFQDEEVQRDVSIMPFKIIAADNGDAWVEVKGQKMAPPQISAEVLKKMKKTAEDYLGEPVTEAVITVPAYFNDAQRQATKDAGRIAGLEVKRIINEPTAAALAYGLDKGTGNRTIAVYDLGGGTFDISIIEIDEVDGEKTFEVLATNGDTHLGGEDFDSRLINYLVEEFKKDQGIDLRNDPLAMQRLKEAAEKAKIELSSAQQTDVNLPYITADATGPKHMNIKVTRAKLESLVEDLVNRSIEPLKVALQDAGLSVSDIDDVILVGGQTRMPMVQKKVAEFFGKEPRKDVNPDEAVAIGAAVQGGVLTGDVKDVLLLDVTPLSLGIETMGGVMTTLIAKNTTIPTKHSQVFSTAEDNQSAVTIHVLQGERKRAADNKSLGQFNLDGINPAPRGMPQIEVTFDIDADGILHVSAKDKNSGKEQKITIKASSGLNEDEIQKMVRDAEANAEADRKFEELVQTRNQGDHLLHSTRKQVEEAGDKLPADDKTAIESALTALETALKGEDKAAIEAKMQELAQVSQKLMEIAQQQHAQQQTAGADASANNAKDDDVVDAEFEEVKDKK

Compound `CC[C@H]1OC(=O)[C@H](C)[C@@H](O[C@H]2C[C@@](C)(OC)[C@@H](O)[C@H](C)O2)[C@H](C)[C@@H](O[C@@H]2O[C@H](C)C[C@H](N(C)C)[C@H]2O)[C@](C)(O)C[C@@H](C)CN(C)[C@H](C)[C@@H](O)[C@]1(C)O` [AZM, azithromycin, reference compound] has an MIC ([1]; PA14, pH 7.4, read-out: MIC P. aeruginosa PA14 4.13 (phoQ), 12.5% MHB, polymyxin B resistant strain, 12.5% MHB pH 7.4, 16–20 h at 37 °C) of 16 to 32 µg/mL (≈ 21.4 to 42.7 µM) and an MIC ([1]; PA14, pH 7.4, read-out: MIC P. aeruginosa PA14 4.13, supplement CSV, 12.5% MH pH 7.4) of 16 to 32 µg/mL (≈ 21.4 to 42.7 µM).

For `CC[C@H](C)[C@H](NC(=O)[C@@H](CCCNC(=N)N)NC(=O)[C@H](CCCNC(=N)N)NC(=O)[C@@H]1CCCN1C(=O)[C@@H]1CCCN1C(=O)[C@H](CCCNC(=N)N)NC(=O)[C@@H]1CCCN1C(=O)[C@H](CCCNC(=N)N)NC(=O)[C@@H]1CCCN1C(=O)[C@H](CC(C)C)NC(=O)[C@H](Cc1ccc(O)cc1)NC(=O)[C@@H]1CCCN1C(=O)[C@@H]1CCCN1C(=O)[C@H](CCCCN)NC(=O)[C@H](CC(=O)O)NC(=O)[C@@H](N)C(C)C)C(=O)N[C@@H](Cc1ccc(O)cc1)C(=O)N[C@@H](CC(N)=O)C(=O)N[C@H](CCCNC(=N)N)C(N)=O` [Onc112, reference compound] (H-VDKPPYLPRPRPPR[dR]IYN[dR]-NH2), the “Serum stability (undegraded peptide)” value [2] was “essentially stable to degradation over 24 h”.

In the case of “VDKPPYLPRPRPPRRIYNR [sr-Onc] (VDKPPYLPRPRPPRRIYNR-NH2; also: all 19 residues stereorandomized (1:1 L/D mixture)) [fully stereorandomized oncocin]”, the DnaK binding check ([3]; 20 nM His-Tag-labeled DnaK, 50 μM peptide, 4 replicates) is reported as “negative for binding; also recorded: no detectable binding to DnaK”.

In the case of “VDKPPYLPRPRPPRRIYNR-NH2 [L-Onc, reference compound]”, the Kd ([3]; 2-fold serial dilution from 100 μM, His-Tag-labeled DnaK, read-out: KD, apparent binding to DnaK) is reported as 29.8 µM and ~30 µM and the “Serum stability (undegraded peptide)” value [2] is reported as “rapidly degraded”.
